Patent US7041815B2, “Sporamin promoter and uses thereof” (Sinon Corporation, priority 2001, dated 2006)

Columns and labels:
Type in all cases: in vivo, Nicotiana tabaccum cv. W38
[1] = test system: sporamin promoter fused to the GUS reporter gene; test: Pspoa-GUS activity in response to elicitors sprayed onto leaves (fluorometric GUS assay); settings: for effect on the sporamin promoter function (in words): treatment alone
Experimental: The plasmid was transformed into tobacco cells (Nicotiana tabaccum cv. W38) using Agrobacterium tumefaciens LBA4404 in the leaf disc method (Hörsch et al. (1985). Science 227:1229–1231). […] Two lines, Tspoa11 and Tspoa37 were selected for further analysis. GUS activity was measured in the leaves of plants obtained from these lines as follows. A middle leaf of the mature tobacco plant was injured with a scissors. Two hours later, wounded and unwounded leaves were harvested, mixed with GUS extraction buffer (50 mM sodium phosphate, pH 7.0, 10 mM EDTA, 10 mM β-mercaptoethanol, 0.1% sodium lauryl sarcosine, 0.1% Triton X-100), frozen, and grounded into a fine powder with a mortar and pestle while in liquid nitrogen. The sample was thawed and centrifuged at 12,000×g for 10 minutes at 4° C. The total protein content was determined using the method of Bradford ((1976) Anal. Biochem. 72:248–254). GUS activity was measured in a fluorometric assay by the addition of 4-methylumbelliferyl-β-D-glucuronide substrate and monitoring the reaction in a […] to determine […] of activity following the method of Jefferson ((1987) EMBO J 6:3901–3908).
The activity the Pspoa-GUS fusion was monitored in response to spraying with the elicitor, methyl jasmonate. Solutions of 50 μM and 100 μM methyl jasmonate were prepared and sprayed onto leaves using a commercial atomizer. Sodium phosphate buffer, pH 7.0, was used as a control solution.
The activity of the sporamin promoter fused to the GUS reporter gene was monitored in response to abscisic acid (ABA). Solutions of 100 μM and 200 μM ABA were prepared and sprayed onto leaves using a commercial atomizer.

[2] = test system: sporamin promoter fused to the GUS reporter gene; test: as above; settings: 1 mM sprayed onto leaves of Pspoa-GUS tobacco
[3] = test system: GUS reporter gene; test: Pspoa-GUS activity in response to leaf wounding (fluorometric GUS assay)
Excerpt: To analyze the properties of the sporamin promoter, the promoter was operably linked to the reporter gene β-glucuronidase (GUS). The plasmid pBI101 is a Ti plasmid binary vector harboring the GUS gene in a form lacking a promoter (Clontech, Palo Alto Calif.). The sporamin promoter was excised with the restriction endonucleases XbaI and BamHI, isolated, and ligated into compatible sites of a restricted pBI101 nucleic acid. The resulting plasmid construct, termed pBI101/Pspoa, was verified by restriction mapping and nucleic acid sequencing.
Two lines, Tspoa11 and Tspoa37 were selected for further analysis. GUS activity was measured in the leaves of plants obtained from these lines as follows. A middle leaf of the mature tobacco plant was injured with a scissors. Two hours later, wounded and unwounded leaves were harvested, mixed with GUS extraction buffer (50 mM sodium phosphate, pH 7.0, 10 mM EDTA, 10 mM β-mercaptoethanol, 0.1% sodium lauryl sarcosine, 0.1% Triton X-100), frozen, and grounded into a fine powder with a mortar and pestle while in liquid nitrogen. The sample was thawed and centrifuged at 12,000×g for 10 minutes at 4° C.
GUS activity was monitored as described above at various intervals after leaf wounding.

[4] = 100 μM sprayed onto leaves of Pspoa-GUS tobacco
[5] = 200 μM sprayed onto leaves of Pspoa-GUS tobacco

For `CC1=CC(=O)CC(C)(C)[C@@]1(O)/C=C/C(C)=C\C(=O)O` [ABA, abscisic acid], the GUS activity [1, 4] was 170 nmole MU/min/mg protein, the “induction of the sporamin promoter (in words)” value ([1]; 100 μM, fluorometric assay) was “potent inducer” and the GUS activity [1, 5] was 60 nmole MU/min/mg protein.

`O=C(O)c1ccccc1O` [SA, salicylic acid] was tested, and the GUS activity [2] was 21 nmole MU/min/mg protein, the GUS activity [1, 5] was 15 nmole MU/min/mg protein and the “sporamin promoter activity when treatment precedes wounding or methyl jasmonate treatment (in words)” value ([1]; pre-treatment before wounding / methyl jasmonate) was “less sporamin promoter activity was observed”. For the same molecule, the “effect on the sporamin promoter function (in words)” value [1] was “no effect”.

With `C=C` [ethylene] the “effect on the sporamin promoter function (in words)” value [1] was “no effect”.

`CC/C=C\CC1C(=O)CCC1CC(=O)OC` (stereo not shown) [methyl jasmonate] showed a GUS activity ([1]; 50 μM sprayed onto leaves of Pspoa-GUS tobacco) of 420 nmole MU/min/mg protein, a GUS activity [1, 4] of 225 nmole MU/min/mg protein and a GUS activity increase ([1]; two hours after spraying with 50 μM) of 37 fold. For the same molecule, the GUS activity increase ([1]; two hours after spraying with 100 μM) was 20 fold.

B1: sporamin promoter: 1.25 kb sweet potato (Ipomoea batatas) sporamin promoter sequence, SEQ ID NO:1 (nucleic acid)
DNA: CGACGGCCCGGGCTAGGTCAAGTAACCCGAACTTGGTCAAGTTTGTTATAACTTATTCTCCCTTTTTCGTGAGGGCGGTTAGGGGACTTAGTATAAATAGGAGTGTAATCGGGCTTGTTAAGACATATTGAACTCACCTGTAATAGCATTACATTTCTCGTAAATACGTACAATATCCTTGTCTTTCCAATAACATTTTTGTCTTTTACCATTATCTTTTATCCAATCCTTTAATTATCGAGTTTGTTAATTCAGATCACCCAAATTAATTAAATCCATCATTTGGATTAAGTTATCTTACTTTACTAATTAGAGTTTTTATCTTCAGAGGAAGGAAGAAGAAAATTAATTGACATGACTCTCATCGGGTTGCACTCCACCCATTATGTTATACAATGCAAACTCTTTTAAAATAAATTAAAATTATATATATATATAATAGTGCAACCTACATCACTTTTTCAATGTGGGACGAAAGCACCTTCAAAAGTCTTTCGAACCCCATTTTTCCTCGAATATATTTTGAGAATCAATTTCTCAATTAATCATTATTATCCATCTTCGTGTACATATATAATATATATATCACATTAAACATCTAACTTAGAAGAACTCAAATTTATTTTTAACTCTACTTATATCAAAAGTGGACTCTACTGAAAATTATACCACAAAATGATATTTTAAACGTTATATTTAACAAAAATTTCTGACATTATCTTATTTAATCTTCTACTAGTTAGAATAATAAAACAAATTTCACTCATAACATAAATTTAAATAGTGATCGTGAATTTTTACGGAAATTAATCAAATAATTGTATGTAATAATGTAATGTAATGAATTTTGATGATGGGTAAAATGTATTTTAATTATTACACGACTTGCCTTCTTTAATTTGTTCTTAGGATCCTAGACTTCATCCCTGCATAGCAAAACCATTGGACACTTGGACGGCCACAAATCATTTCTATTTTCTCCCAACTCCTCCTGTCAGCATGGGATCATTATCAACTTTATCTCATCCCATTACACACCGTAAGTGTACCATCCATCGCTCAATCACTGTATACTTAAATCTCCAGATTAAGTCACTAAATAACTGTGTTGGACTGTGAAAACTTTGAGTAAAAAAAGGCAAAATACTCTTAAAACTGTACAAAAAACAATAATTCAACCCTTACTCTTGTTGTCTATAAATTGGATGCATGAGAGCTCAACACAACACAACACCACCAACAAATTAAACATCATTACCTCTTAGCTTTTCTCCCAAGTTGTC
modifications: Ipomoea batatas
For B1, the “time GUS expression remained above 250 nmole MU/min/mg after wounding” value ([3]; leaf wounding) was “at least 50 hours”, the “time to induction of GUS expression after wounding” value ([3]; leaf wounding) was no more than 15 min and the “maximum GUS expression level over the uninduced (unwounded) level” value ([3]; maximum at 12 hours after wounding) was 16 fold. The “level of GUS expression after leaf wounding” value ([3]; within 2 hours of wounding) was “over 250 nmole MU/min/mg of protein”.
